Measurements reported in ChEMBL document CHEMBL1150083, “The Racemization of Crinitol. Resolution of Crinitol and of 3-Nonen-2-ol Enantiomers by Recycle-HPLC, via MTPA Esters” (J Nat Prod, 1995).
Activity calls are given as the source filed them.

Tests used:
Type in all cases: functional, organism-based
[1] = test system: Staphylococcus aureus; test: Antimicrobial activity against Staphylococcus aureus
[2] = test system: Corynebacterium ammoniagenes; test: Antimicrobial activity against Brevibacterium ammoniagenes
[3] = test system: Bacillus subtilis; test: Antimicrobial activity against Bacillus subtilis
[4] = test system: Cutibacterium acnes; test: Antimicrobial activity against Propionibacterium acnes
[5] = test system: Streptococcus mutans; test: Antimicrobial activity against Streptococcus mutans

Measured: Activity

CC(C)=CCC/C(C)=C/[C@@H](O)C/C(C)=C/CC/C(C)=C/CO
active: [1] | [2] | [3] | [4] | [5]

CC(C)=CCC/C(C)=C/[C@H](O)C/C(C)=C/CC/C(C)=C/CO
active: [1] | [2] | [3] | [4] | [5]
